Experimental data as given in US7863269B2, “Imino-imidazo-pyridine derivatives having antithrombotic activity” (sanofi-aventis, priority 2006, dated 2011).

These compounds were tested against T1, PAR1 (Homo sapiens, UniProt P25116) (assay: Inhibition of PAR1-mediated platelet aggregation induced by TRAP (96-well format)). Settings: washed platelets from blood of healthy volunteers; agonist TRAP (thrombin-receptor activating peptide) solution 70-100 μM; AUC at 650 nm, 37° C., 20 minutes.
T1 construct: endogenous in cells; host or cells: washed platelets from platelet-rich plasma of healthy volunteers
T1 sequence (P25116 22-425): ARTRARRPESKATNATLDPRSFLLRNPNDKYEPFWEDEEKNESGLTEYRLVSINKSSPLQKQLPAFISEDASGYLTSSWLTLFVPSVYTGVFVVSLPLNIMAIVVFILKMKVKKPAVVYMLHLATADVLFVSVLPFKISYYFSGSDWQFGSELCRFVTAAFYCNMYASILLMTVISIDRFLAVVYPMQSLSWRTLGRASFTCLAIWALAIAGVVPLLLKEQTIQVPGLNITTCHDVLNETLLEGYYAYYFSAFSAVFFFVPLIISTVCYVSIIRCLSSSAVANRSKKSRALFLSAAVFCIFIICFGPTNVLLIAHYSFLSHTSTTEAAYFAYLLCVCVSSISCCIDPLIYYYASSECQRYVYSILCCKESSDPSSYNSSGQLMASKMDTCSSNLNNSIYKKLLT
Assay type: cell-based
Procedure: PAR 1 determination method: Inhibition of PAR1-mediated platelet aggregation The pharmacological testing of the substances was carried out in the platelet aggregation induced by TRAP (thrombin-receptor activating peptide) in a 96-well format. To this end, blood from healthy volunteers was taken in 20 ml syringes into which 2 ml of 3.13% strength sodium citrate solution was initially introduced. After a 20-minute centrifugation at 150×g, the platelet-rich plasma (PRP) was separated off and treated with 1 μl of PGE1 solution (500 μg/ml in ethanol)/ml of PRP. After incubation at RT for 5 minutes, this was centrifuged at 120×g for 15 minutes in order to remove the leucocytes. The leucocyte-free PRP was transferred to 15 ml PP tubes in 5 ml portions and centrifuged off at 360×g for 15 minutes in order to pellet the platelets. Subsequently, the plasma was decanted and the platelet sediment from 5 ml of PRP was resuspended in 1 ml of Tyrode (120 mM NaCl, 2.6 mM KCl, 12 mM NaHCO3, 0.39 mM NaH2PO4×H2O, 10 mM HEPES, 0.35% BSA, 5.5 mM glucose, pH 7.4) and adjusted with Tyrode to a platelet count of 3×10^5/microliter (μl). 13 ml of this cell suspension were then treated with 866 μl of 10 mM CaCl2 solution and 120 μl thereof per well were pipetted to a 96-well plate, in which 15 μl of the substance to be tested were initially introduced. After incubation in the dark at RT for 30 minutes, 15 μl of a TRAP solution (70-100 μM) were added as the agonist and kinetics were recorded with shaking at 37° C. for 20 minutes in a SpectraMax 340 at 650 nm. The areas under the curves of negative control (Tyrode/DMSO) and positive control (15 μl of agonist/DMSO) were calculated and the difference was defined as the 100% value. The substances to be tested were pipetted as a dilution series in a duplicate determination, likewise the AUC of each substance concentration was determined and the % inhibition of the AUC against the control was calculated. By means of the % inhibition, the IC50 was calculated with the aid of a nonlinear regression analysis according to the 4 parameter equation.

Row | SMILES | IC50 [µM]
1 | CC(C)(C)c1cc(C(=O)Cn2c(C3CC3)c3ccccn3c2=N)cc(C(C)(C)C)c1O [Example 3, 2-(1-Cyclopropyl-3-iminoimidazo[1,5-a]pyridin-2-yl)-1-(3,5-di-tert-butyl-4-hydroxyphenyl)ethanone] | 0.85
2 | CC(C)(C)c1cc(C(=O)Cn2cc3cc(C(F)(F)F)ccn3c2=N)cc(C(C)(C)C)c1O [Example 6b, 1-(3,5-Di-tert-butyl-4-hydroxyphenyl)-2-(3-imino-7-trifluoromethylimidazo[1,5-a]pyridin-2-yl)ethanone] | 0.73
3 | CCOC(=O)c1cc(OC)n2c(=N)n(CC(=O)c3cc(N4CCOCC4)c(OC)c(C(C)(C)C)c3)cc2c1 [Example 20, Ethyl 2-[2-(3-tert-butyl-4-methoxy-5-morpholin-4-ylphenyl)-2-oxoethyl]-3-imino-5-methoxy-2,3-dihydroimidazo[1,5-a]pyridine-7-carboxylate] | 0.07
4 | CCOc1cc2cn(CC(=O)c3cc(N4CCOCC4)c(OC)c(C(C)(C)C)c3)c(=N)n2cc1C(=O)NC [Example 19, 2-[2-(3-tert-Butyl-4-methoxy-5-morpholin-4-ylphenyl)-2-oxoethyl]-7-ethoxy-3-imino-2,3-dihydroimidazo[1,5-a]pyridine-6-carboxylic acid Methylamide] | 0.9
5 | N=c1n(CC(=O)c2cccc(S(F)(F)(F)(F)F)c2)cc2ccccn12 [Example 2, 2-(3-Iminoimidazo[1,5-a]pyridin-2-yl)-1-(3-pentafluorosulfanylphenyl)ethanone] | 13
6 | COC(=O)c1ccc2cn(CC(=O)c3cc(N4CCOCC4)c(OC)c(C(C)(C)C)c3)c(=N)n2c1 [Example 8, Methyl 2-[2-(3-tert-butyl-4-methoxy-5-morpholin-4-ylphenyl)-2-oxoethyl]-3-imino-2,3-dihydroimidazo[1,5-a]pyridine-6-carboxylate] | 0.51
7 | CCOc1ccc2n(c1=O)C(=N)N(CC(=O)c1cc(N3CCOCC3)c(OC)c(C(C)(C)C)c1)C2 [Example 18, 2-[2-(3-tert-Butyl-4-methoxy-5-morpholin-4-ylphenyl)-2-oxoethyl]-6-ethoxy-3-imino-2,3-dihydro-1H-imidazo[1,5-a]pyridin-5-one] | 9.5
8 | CCOc1cc2cn(CC(=O)c3cc4c(c(C(C)(C)C)c3)OCCN4C)c(=N)n2cc1C(=O)NC [Example 12, 2-[2-(8-tert-Butyl-4-methyl-3,4-dihydro-2H-benzo[1,4]oxazin-6-yl)-2-oxoethyl]-7-ethoxy-3-imino-2,3-dihydroimidazo[1,5-a]pyridine-6-carboxylic acid methylamide] | 0.02
